This is an account of results in patent publication US9206232B2, “Organic compounds and their uses” (Novartis AG, priority 2009, dated 2015).

The term IC50 denotes the concentration needed to halve the response being measured.

The subject of one test is HCV. To be noted: ribavirin alone; cited from earlier work.
Test [1] has as its target HCV NS3-4A serine protease (full-length NS3-4A protein) (Hepatitis C virus genotype 1a (isolate 1) (HCV), UniProt P26664). As to the kind of experiment: HCV NS3-4A protease assay. It is filed as biochemical, HCV genotype 1a. The settings on record: genotype 1a strain HCV-1, fluorogenic peptide substrate, read-out: Protease assay Ex. 12 IC50. On the procedure: The inhibitory activity of certain compounds of Table A against HCV NS3-4A serine protease is determined in a homogenous assay using the full-length NS3-4A protein (genotype 1a, strain HCV-1) and a commercially available internally-quenched fluorogenic peptide substrate as described by Taliani, M., et al. 1996 Anal. Biochem. 240:60-67, which is incorporated by reference in its entirety.

Chain of HCV NS3-4A serine protease (full-length NS3-4A protein) (P26664 1027-1657): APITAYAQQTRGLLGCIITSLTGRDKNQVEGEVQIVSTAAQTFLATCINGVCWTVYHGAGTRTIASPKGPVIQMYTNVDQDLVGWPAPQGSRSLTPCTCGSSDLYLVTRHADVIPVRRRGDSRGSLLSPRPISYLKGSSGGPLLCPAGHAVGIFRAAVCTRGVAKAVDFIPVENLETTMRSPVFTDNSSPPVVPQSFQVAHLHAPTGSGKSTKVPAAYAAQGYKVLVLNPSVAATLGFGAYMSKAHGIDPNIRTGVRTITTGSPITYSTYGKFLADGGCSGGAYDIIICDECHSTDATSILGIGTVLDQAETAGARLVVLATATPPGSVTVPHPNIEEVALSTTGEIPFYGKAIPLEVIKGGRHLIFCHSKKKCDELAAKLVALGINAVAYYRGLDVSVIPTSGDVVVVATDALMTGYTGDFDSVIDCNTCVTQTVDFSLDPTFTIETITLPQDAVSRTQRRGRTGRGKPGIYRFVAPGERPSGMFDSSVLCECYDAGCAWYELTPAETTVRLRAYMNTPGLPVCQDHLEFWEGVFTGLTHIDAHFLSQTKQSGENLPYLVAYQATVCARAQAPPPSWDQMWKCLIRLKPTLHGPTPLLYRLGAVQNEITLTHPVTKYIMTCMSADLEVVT
Chain of HCV NS3-4A serine protease (full-length NS3-4A protein) (P26664 1658-1711 partner): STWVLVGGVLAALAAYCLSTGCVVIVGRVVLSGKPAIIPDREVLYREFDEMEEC

Turning to `NC(=O)c1ncn([C@@H]2O[C@H](CO)[C@@H](O)[C@H]2O)n1` [Ribavirin, ribavirin], in the test with HCV, the “effect on serum levels of HCV-RNA” value is given as “does not lower serum levels of HCV-RNA” and the “patients with serum amino transferase levels reduced to normal” value was 40 % of patients.

Regarding `C=C[C@@H]1C[C@]1(NC(=O)[C@@H]1C[C@@]2(CN1C(=O)[C@@H](NC(=O)[C@@H](NC(=O)[C@@H]1Cc3[nH]cnc3CN1)C(C)(C)C)C(C)(C)C)C(C)(C)C21CCC1)C(=O)NS(=O)(=O)N1CCCC1` [Example 29, (5R,8S)-7-[(2S)-2-{[(2S)-3,3-dimethyl-2-{[(6S)-4,5,6,7-tetrahydro-1H-imidazo[4,5-c]pyridin-6-ylcarbonyl]amino}butanoyl]amino}-3,3-dimethylbutanoyl]-10,10-dimethyl-N-{(1 R,2S)-1-[(pyrrolidin-1-ylsulfonyl)carbamoyl]-2-vinylcyclopropyl}-7-azadispiro[3.0.4.1]decane-8-carboxamide], the concentration for half-maximal inhibition (IC50) in test [1] was 40 nM. Still for that read-out and setting: with `C=C[C@@H]1C[C@]1(NC(=O)[C@@H]1C[C@@]2(CN1C(=O)[C@@H](NC(=O)[C@@H](NC(=O)[C@@H]1CCCCN1C(C)C)C1CCCCC1)C1CCCC1)C(C)(C)C21CCC1)C(=O)NS(=O)(=O)N1CCCC1` [Example 66, (5R,8S)-7-[(2S)-2-{[(2S)-2-cyclohexyl-2-({[(2S)-1-isopropylpiperidin-2-yl]carbonyl}amino)acetyl]amino}-2-cyclopentylacetyl]-10,10-dimethyl-N-{(1R,2S)-1-[(pyrrolidin-1-ylsulfonyl)carbamoyl]-2-vinylcyclopropyl}-7-azadispiro[3.0.4.1]decane-8-carboxamide] the figure was 5.5 nM.

Regarding `[2H]C([2H])([2H])C([2H])(N1CCCC[C@H]1C(=O)NC(C(=O)N[C@H](C(=O)N1C[C@]2(C[C@H]1C(=O)N[C@]1(C(=O)NS(=O)(=O)N3CCCC3)C[C@H]1C=C)C(C)(C)C21CCC1)C(C)(C)C)C1CCCCC1)C([2H])([2H])[2H]` (some centres unmarked) [Compound 145], the concentration for half-maximal inhibition (IC50) in test [1] stood at 5.9 nM.
